Data taken from US20050142531A1, “Peptidically buffered formulations for electrotransport applications and methods of making” (priority 2003, published 2005).
Square brackets hold non-standard residues; d marks the D form. Peptide text beside a SMILES is read from it. Orn = NCCC[C@H](N)C(=O)O

Test: pKa, pI and % salt of peptidic buffers
Type: physicochemical

For `N=C(N)NCCC[C@H](N)C(=O)N[C@@H](CCC(=O)O)C(=O)O` [Arg-Glu] (H-Arg-Glu-OH; N-terminus and C-terminus assumed), the “pka A (acidic pKa)” value (Table 2, first acidic pKa) was 2.74, the “pka B (basic pKa)” value (Table 2, first basic pKa) was 7.92 and the “pka A (acidic pKa)” value (Table 2, second acidic pKa) was 4.18. For the same compound, the “pka B (basic pKa)” value (Table 2, second basic pKa) was 12.50.

In the case of `O=C(O)[C@H](Cc1c[nH]cn1)NC(=O)[C@@H]1CC(O)CN1` (stereo partly drawn) [Hydroxyproline-His], the “pka A (acidic pKa)” value (Table 2, first acidic pKa) is reported as 2.42, the “pka B (basic pKa)” value (Table 2, first basic pKa) is reported as 6.71 and the “pka B (basic pKa)” value (Table 2, second basic pKa) is reported as 8.23.

For `N=C(N)NCCC[C@H](N)C(=O)N[C@@H](CC(=O)O)C(=O)O` [Arg-Asp] (H-Arg-Asp-OH; N-terminus and C-terminus assumed), the “pka A (acidic pKa)” value (Table 2, first acidic pKa) was 2.64, the “pka B (basic pKa)” value (Table 2, first basic pKa) was 8.05 and the “pka A (acidic pKa)” value (Table 2, second acidic pKa) was 4.10. For the same compound, the “pka B (basic pKa)” value (Table 2, second basic pKa) was 12.50.

With `N[C@@H](Cc1c[nH]cn1)C(=O)N[C@@H](CO)C(=O)O` [His-Ser] (H-His-Ser-OH; N-terminus and C-terminus assumed) the “pka A (acidic pKa)” value (Table 2, first acidic pKa) was 2.65, the “pka B (basic pKa)” value (Table 2, first basic pKa) was 6.10 and the “pka B (basic pKa)” value (Table 2, second basic pKa) was 7.80.

In the case of `NCC(O)CC[C@H](N)C(=O)N[C@@H](Cc1c[nH]cn1)C(=O)O` (stereo partly drawn) [Hydroxylysine-His], the “pka A (acidic pKa)” value (Table 2, first acidic pKa) is reported as 2.42, the “pka B (basic pKa)” value (Table 2, first basic pKa) is reported as 6.71 and the “pka B (basic pKa)” value (Table 2, second basic pKa) is reported as 7.40. The “pka B (basic pKa)” value (Table 2, third basic pKa) was 9.70.

In the case of `CSCC[C@H](NC(=O)[C@@H](N)Cc1c[nH]cn1)C(=O)O` [His-Met] (H-His-Met-OH; N-terminus and C-terminus assumed), the “pka A (acidic pKa)” value (Table 2, first acidic pKa) is reported as 2.89, the “pka B (basic pKa)” value (Table 2, first basic pKa) is reported as 6.10 and the “pka B (basic pKa)” value (Table 2, second basic pKa) is reported as 7.80.

In the case of `N[C@@H](Cc1c[nH]cn1)C(=O)N[C@@H](Cc1c[nH]c2ccccc12)C(=O)O` [His-Trp], the “pka A (acidic pKa)” value (Table 2, first acidic pKa) is reported as 3.07, the “pka B (basic pKa)” value (Table 2, first basic pKa) is reported as 6.10 and the “pka B (basic pKa)” value (Table 2, second basic pKa) is reported as 7.80.

In the case of `CC[C@H](C)[C@H](NC(=O)[C@@H](N)Cc1c[nH]cn1)C(=O)O` [His-Isoleucine] (H-His-Ile-OH; N-terminus and C-terminus assumed), the “pka A (acidic pKa)” value (Table 2, first acidic pKa) is reported as 3.13, the “pka B (basic pKa)” value (Table 2, first basic pKa) is reported as 6.10 and the “pka B (basic pKa)” value (Table 2, second basic pKa) is reported as 7.80.

With `N=C(N)NCCC[C@H](NC(=O)[C@@H](N)CCC(=O)O)C(=O)O` [Glu-Arg] (H-Glu-Arg-OH; N-terminus and C-terminus assumed) the “pka A (acidic pKa)” value (Table 2, first acidic pKa) was 2.66, the “pka B (basic pKa)” value (Table 2, first basic pKa) was 7.94 and the “pka A (acidic pKa)” value (Table 2, second acidic pKa) was 4.01. For the same compound, the “pka B (basic pKa)” value (Table 2, second basic pKa) was 12.50.

In the case of `N[C@@H](CCC(=O)O)C(=O)N[C@@H](Cc1c[nH]cn1)C(=O)O` [Glu-His] (H-Glu-His-OH; N-terminus and C-terminus assumed), the “pka A (acidic pKa)” value (Table 2, first acidic pKa) is reported as 2.45, the “pka B (basic pKa)” value (Table 2, first basic pKa) is reported as 6.81 and the “pka A (acidic pKa)” value (Table 2, second acidic pKa) is reported as 3.45. The “pka B (basic pKa)” value (Table 2, second basic pKa) was 8.20.

For `C[C@H](N)C(=O)N[C@@H](Cc1c[nH]cn1)C(=O)O` [Ala-His] (H-Ala-His-OH; N-terminus and C-terminus assumed), the “pka A (acidic pKa)” value (Table 2, first acidic pKa) was 2.42, the “pka B (basic pKa)” value (Table 2, first basic pKa) was 6.71 and the “pka B (basic pKa)” value (Table 2, second basic pKa) was 8.37.

With `O=C(O)[C@H](Cc1c[nH]cn1)NC(=O)[C@@H]1CCCN1` [Pro-His] the “pka A (acidic pKa)” value (Table 2, first acidic pKa) was 2.42, the “pka B (basic pKa)” value (Table 2, first basic pKa) was 6.71 and the “pka B (basic pKa)” value (Table 2, second basic pKa) was 9.10.

With `NC(=O)CC[C@H](NC(=O)[C@@H](N)Cc1c[nH]cn1)C(=O)O` [His-Gln] (H-His-Gln-OH; N-terminus and C-terminus assumed) the “pka A (acidic pKa)” value (Table 2, first acidic pKa) was 2.93, the “pka B (basic pKa)” value (Table 2, first basic pKa) was 6.10 and the “pka B (basic pKa)” value (Table 2, second basic pKa) was 7.80.

In the case of `N[C@@H](Cc1c[nH]cn1)C(=O)N[C@@H](Cc1c[nH]cn1)C(=O)O` [His-His], the “pka A (acidic pKa)” value (Table 2, first acidic pKa) is reported as 2.25, the “pka B (basic pKa)” value (Table 2, first basic pKa) is reported as 5.40 and the “pka B (basic pKa)” value (Table 2, second basic pKa) is reported as 6.80. For the same compound, the “pka B (basic pKa)” value (Table 2, third basic pKa) was 7.95.

For `NCCC[C@H](NC(=O)[C@@H](N)Cc1c[nH]cn1)C(=O)O` [His-Ornithine] (H-His-[Orn]-OH; N-terminus and C-terminus assumed), the “pka A (acidic pKa)” value (Table 2, first acidic pKa) was 2.82, the “pka B (basic pKa)” value (Table 2, first basic pKa) was 6.10 and the “pka B (basic pKa)” value (Table 2, second basic pKa) was 7.80. For the same compound, the “pka B (basic pKa)” value (Table 2, third basic pKa) was 11.00.

For `NCCC[C@H](N)C(=O)N[C@@H](Cc1c[nH]cn1)C(=O)O` [Ornithine-His], the “pka A (acidic pKa)” value (Table 2, first acidic pKa) was 2.42, the “pka B (basic pKa)” value (Table 2, first basic pKa) was 6.71 and the “pka B (basic pKa)” value (Table 2, second basic pKa) was 7.30. The “pka B (basic pKa)” value (Table 2, third basic pKa) was 11.00.

With `N[C@@H](CC(=O)O)C(=O)N[C@@H](Cc1c[nH]cn1)C(=O)O` [Asp-His] (H-Asp-His-OH; N-terminus and C-terminus assumed) the “pka A (acidic pKa)” value (Table 2, first acidic pKa) was 2.45, the “pka B (basic pKa)” value (Table 2, first basic pKa) was 6.81 and the “pka A (acidic pKa)” value (Table 2, second acidic pKa) was 3.02. The “pka B (basic pKa)” value (Table 2, second basic pKa) was 7.98.

In the case of `NC(=O)C[C@H](NC(=O)[C@@H](N)Cc1c[nH]cn1)C(=O)O` [His-Asn] (H-His-Asn-OH; N-terminus and C-terminus assumed), the “pka A (acidic pKa)” value (Table 2, first acidic pKa) is reported as 2.62, the “pka B (basic pKa)” value (Table 2, first basic pKa) is reported as 6.10 and the “pka B (basic pKa)” value (Table 2, second basic pKa) is reported as 7.80.

With `NCC(=O)N[C@@H](CC(=O)O)C(=O)O` [Gly-Asp] (H-Gly-Asp-OH; N-terminus and C-terminus assumed) the “pka A (acidic pKa)” value (Table 2, first acidic pKa) was 2.81, the “pka B (basic pKa)” value (Table 2, first basic pKa) was 8.60 and the “pka A (acidic pKa)” value (Table 2, second acidic pKa) was 4.45.

With `CC(C)C[C@H](NC(=O)[C@@H](N)Cc1c[nH]cn1)C(=O)O` [His-Leu] (H-His-Leu-OH; N-terminus and C-terminus assumed) the “pka A (acidic pKa)” value (Table 2, first acidic pKa) was 3.10, the “pka B (basic pKa)” value (Table 2, first basic pKa) was 6.10 and the “pka B (basic pKa)” value (Table 2, second basic pKa) was 7.80.
